We go through six compounds from PubChem BioAssay AID1259407 (Chemical Carcinogenesis Research Information System (CCRIS), 2018).

The subject of the data set is CCRIS mutagenicity, Ames/micronucleus/aberration tests. The experiment in a line: CCRIS mutagenicity studies.
Where [1] appears, read: Test System: AMES SALMONELLA TYPHIMURIUM, Strain/Indicator: TA100, Metabolic Activation: NONE, Method: STANDARD PLATE.
[2] abbreviates: Test System: AMES SALMONELLA TYPHIMURIUM, Strain/Indicator: TA1535, Metabolic Activation: NONE, Method: STANDARD PLATE.
The mark [3] stands for this setting: Test System: AMES SALMONELLA TYPHIMURIUM, Strain/Indicator: TA1537, Metabolic Activation: NONE, Method: STANDARD PLATE.

The structures appear in SMILES notation. Activity calls are given as the source filed them. The rule behind the calls is not given here.

As to `Cc1ccc(C(O)(P(=O)(O)O)P(=O)(O)O)cc1N(CCCl)CCCl`, the mutagenic call runs as follows: (Test System: AMES SALMONELLA TYPHIMURIUM, Strain/Indicator: TA98, Metabolic Activation: NONE, Method: STANDARD PLATE) “inactive; negative”; (Test System: AMES SALMONELLA TYPHIMURIUM, Strain/Indicator: TA98, Metabolic Activation: RAT, LIVER, S-9, AROCLOR, Method: STANDARD PLATE) “inactive; negative”; under setting [1], “inactive; negative”; (Test System: AMES SALMONELLA TYPHIMURIUM, Strain/Indicator: TA100, Metabolic Activation: RAT, LIVER, S-9, AROCLOR, Method: STANDARD PLATE) “inactive; negative”; under setting [2], “inactive; negative”; (Test System: AMES SALMONELLA TYPHIMURIUM, Strain/Indicator: TA1535, Metabolic Activation: RAT, LIVER, S-9, AROCLOR, Method: STANDARD PLATE) “active; positive”. In addition, the mutagenic call by setting is: under setting [3], “inactive; negative”; (Test System: AMES SALMONELLA TYPHIMURIUM, Strain/Indicator: TA1537, Metabolic Activation: RAT, LIVER, S-9, AROCLOR, Method: STANDARD PLATE) “inactive; negative”; (Test System: AMES SALMONELLA TYPHIMURIUM, Strain/Indicator: TA1538, Metabolic Activation: NONE, Method: STANDARD PLATE) “inactive; negative”; (Test System: AMES SALMONELLA TYPHIMURIUM, Strain/Indicator: TA1538, Metabolic Activation: RAT, LIVER, S-9, AROCLOR, Method: STANDARD PLATE) “inactive; negative”.

Regarding `CC(=O)O[C@H]1CC[C@@]2(C)C(=CC[C@H]3[C@@H]4CC[C@H]([C@H](C)CCCC(C)C)[C@@]4(C)CC[C@@H]32)C1`, the mutagenic call runs as follows: (Test System: AMES SALMONELLA TYPHIMURIUM, Strain/Indicator: TA97A, Metabolic Activation: NONE, Method: STANDARD PLATE) “inactive; negative”; (Test System: AMES SALMONELLA TYPHIMURIUM, Strain/Indicator: TA97A, Metabolic Activation: RAT, LIVER, S-9, AROCLOR 1254, Method: STANDARD PLATE) “inactive; negative”; under setting [1], “inactive; negative”; (Test System: AMES SALMONELLA TYPHIMURIUM, Strain/Indicator: TA100, Metabolic Activation: RAT, LIVER, S-9, AROCLOR 1254, Method: STANDARD PLATE) “inactive; negative”; (Test System: AMES SALMONELLA TYPHIMURIUM, Strain/Indicator: TA102, Metabolic Activation: NONE, Method: STANDARD PLATE) “inactive; negative”; (Test System: AMES SALMONELLA TYPHIMURIUM, Strain/Indicator: TA102, Metabolic Activation: RAT, LIVER, S-9, AROCLOR 1254, Method: STANDARD PLATE) “inactive; negative”. The mutagenic call reads like this: (Test System: AMES SALMONELLA TYPHIMURIUM, Strain/Indicator: TA104, Metabolic Activation: NONE, Method: STANDARD PLATE) “inactive; negative”; (Test System: AMES SALMONELLA TYPHIMURIUM, Strain/Indicator: TA104, Metabolic Activation: RAT, LIVER, S-9, AROCLOR 1254, Method: STANDARD PLATE) “inactive; negative”.

Consider `CC[C@H](C)OS(C)(=O)=O`, for which the mutagenic call reads like this: under setting [1], “active; positive”; under setting [2], “active; positive”; (Test System: CHINESE HAMSTER V-79, Strain/Indicator: V-79/6-THIOGUANINE, Metabolic Activation: NONE) “active; positive”.

As to `CCN(CCCC(=O)O)N=O`, for the setting “Test System: AMES SALMONELLA TYPHIMURIUM, Strain/Indicator: TA1535, Metabolic Activation: RAT, LIVER, S-9, KC500 OR PHENOBARBITAL, Method: LIQUID SUSPENSION”, the mutagenic call was “active; positive”.

With `COc1cc2c(c3oc(=O)c4c(c13)CCOC4=O)[C@@H]1CCO[C@@H]1O2`, the mutagenic call was “inactive; negative” (Test System: AMES SALMONELLA TYPHIMURIUM, Strain/Indicator: TA100, Metabolic Activation: NONE, Method: PREINCUBATION) and “inactive; negative” (Test System: AMES SALMONELLA TYPHIMURIUM, Strain/Indicator: TA100, Metabolic Activation: RAT, LIVER, S-9, PHENOBARBITAL, Method: PREINCUBATION).

With `CN(C)CCNC(=O)c1cccc2c(=O)c3ccccc3oc12`, the mutagenic call under setting [3] is “active; positive”.
